Test results from PubChem BioAssay (NCI).
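These data come from cells grown in 96-well plates and exposed to compound for 48 hours at five concentrations. At the GI50, growth is halved. TGI: concentration producing complete growth inhibition.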

How the values were obtained:
Assay in all cases: NCI tumour cell line growth inhibition, 48 h
ACHN renal = system: ACHN renal
HOP-92 NSCLC = system: HOP-92 NSCLC
HT29 colon = system: HT29 colon
MDA-MB-435 = system: MDA-MB-435
MOLT-4 leukemia = system: MOLT-4 leukemia
OVCAR-4 ovarian = system: OVCAR-4 ovarian
OVCAR-8 ovarian = system: OVCAR-8 ovarian
SF-268 CNS = system: SF-268 CNS
U251 CNS = system: U251 CNS
MDA-N = system: MDA-N

| Structure (SMILES) | TGI (ACHN renal) [µM] | TGI (HOP-92 NSCLC) [µM] | TGI (HT29 colon) [µM] | TGI (MDA-MB-435) [µM] | TGI (MOLT-4 leukemia) [µM] | TGI (OVCAR-4 ovarian) [µM] | TGI (OVCAR-8 ovarian) [µM] | TGI (SF-268 CNS) [µM] | TGI (U251 CNS) [µM] | TGI (MDA-N) [µM] | GI50 (ACHN renal) [µM] | GI50 (HOP-92 NSCLC) [µM] | GI50 (HT29 colon) [µM] | GI50 (MOLT-4 leukemia) [µM] | GI50 (OVCAR-4 ovarian) [µM] | GI50 (OVCAR-8 ovarian) [µM] | GI50 (SF-268 CNS) [µM] | GI50 (U251 CNS) [µM] |
| --- | --- | --- | --- | --- | --- | --- | --- | --- | --- | --- | --- | --- | --- | --- | --- | --- | --- | --- |
| COc1ccc(/C=C(\C#N)c2nc(N)nc(N3N=C(C)CC3(C)C)n2)c(O)c1 | 31 | 58.5 | 44.5 | 33.1 | 34.1 | 30.4 | > 100 | 38.3 | 94.1 | – | – | – | – | – | – | – | – | – |
| CN(CCCNC(=O)c1cn(C)c2c1ccc1cc(Cl)c(Cl)cc12)CCCNC(=O)c1cn(C)c2c1ccc1cc(Cl)c(Cl)cc12 | 27.2 | 33.4 | 29.4 | 26.4 | 30.3 | 25.3 | 31.2 | 34 | 11.4 | 36 | – | – | – | – | – | – | – | – |
| Cc1cc(O)c(C(C)C)cc1CN1CCCCC1 | > 100 | > 100 | > 100 | > 100 | > 100 | > 100 | > 100 | > 100 | > 100 | > 100 | – | – | – | – | – | – | – | – |
| OCCOCn1cc(Cn2ncc3c(SCc4ccccc4)ncnc32)nn1 | > 100 | > 100 | > 100 | 35.1 | 48.3 | > 100 | > 100 | > 100 | > 100 | 37 | – | – | – | – | – | – | – | – |
| NCCNc1nc(N2CCCC2)c2nc(Cl)c(NCc3ccccc3)nc2n1 | 3.99 | 6.1 | 5.46 | 3.19 | 4.48 | 5.3 | – | 3.81 | 2.87 | 3.1 | – | – | – | – | – | – | – | – |
| CC(Sc1ccccc1)C(CO)(CO)[N+](=O)[O-] (stereo not drawn) | 30.6 | – | 32.9 | – | 19.3 | 32.1 | 28.7 | 46.5 | 26 | – | – | – | – | – | – | – | – | – |
| COC(=O)C1C(C)N1C (stereo not drawn) | – | > 100 | > 100 | – | > 100 | > 100 | > 100 | – | > 100 | – | – | – | – | – | – | – | – | – |
| O=[n+]1c2c(n([O-])c3ccccc31)-c1cccc3cccc-2c13 | > 100 | > 100 | > 100 | > 100 | > 100 | > 100 | > 100 | > 100 | > 100 | > 100 | – | – | – | – | – | – | – | – |
| NNC(=O)c1ccccc1Nc1ccccc1C(=O)NN | > 100 | – | > 100 | > 100 | > 100 | > 100 | > 100 | > 100 | > 100 | > 100 | – | – | – | – | – | – | – | – |
| Nc1nc(N)c2c(n1)NC(c1ccccc1)CC(/C=C/c1ccc(Cl)cc1)=N2 (stereo not drawn) | 25.5 | 18.2 | 15.2 | 21.1 | 12.6 | 20.5 | 37.2 | 44.1 | > 100 | 24.4 | – | – | – | – | – | – | – | – |
| O=S(=O)(O)c1cccc2c(N=Nc3c(O)ccc4ccccc34)cccc12 | > 100 | > 100 | > 100 | > 100 | > 100 | > 100 | > 100 | > 100 | > 100 | > 100 | – | – | – | – | – | – | – | – |
| N[C@H]1CCN(c2c(F)cc3c(=O)c(C(=O)O)cn4c3c2Oc2cc3c(ccc5ccccc53)cc2-4)C1 | 8.06 | 6.29 | 7.34 | > 100 | > 100 | > 100 | > 100 | – | 5.02 | > 100 | – | – | – | – | – | – | – | – |
| CC(=O)N(C)c1ccc2c(ccc[n+]2[O-])c1[N+](=O)[O-] | > 100 | – | > 100 | – | > 100 | > 100 | > 100 | > 100 | > 100 | – | – | – | – | – | – | – | – | – |
| O=C1c2cc3c(cc2-c2c1c1ccc(Cl)cc1c(=O)n2C[C@H](O)[C@@H](O)[C@H](O)CO)OCO3 | 0.118 | 0.666 | 0.283 | – | 12.5 | > 100 | > 100 | > 100 | 0.0505 | – | 0.0254 | 0.069 | 0.0498 | < 0.01 | 0.177 | 0.0633 | 0.0155 | < 0.01 |
| CC(=O)OC1CC(O)CC2=CCC3C4CCC(C(C)(O)C(O)CC5COC(=O)C5C)C4(C)CCC3C21C (stereo not drawn) | > 25 | > 25 | > 25 | > 25 | > 25 | > 25 | > 25 | > 25 | > 25 | > 25 | – | – | – | – | – | – | – | – |
| CN(C)CCn1c(=O)c2ccc3c4c(nn3CCN(C)C)c3cc(N)ccc3n(c1=O)c24 | 0.428 | – | – | 0.0654 | > 100 | 0.0511 | 0.454 | 0.221 | 3.39 | 0.0752 | – | – | – | – | – | – | – | – |
| CCC(C)C1NC(=O)C2CCCN2C(=O)C(CC2CO2)OC(=O)CCNC(=O)C(C)N(C)C(=O)C(C(C)C)N(C)C1=O (stereo not drawn) | > 100 | > 100 | > 100 | > 100 | – | > 100 | > 100 | > 100 | > 100 | – | – | – | – | – | – | – | – | – |
| CC1(C)CCC2(C(=O)OC3OC(CO)C(O)C(O)C3O)CCC3(C)C(=CCC4C5(C)CCC(OC6OC(CO)C(O)C(O)C6O)C(C)(C)C5CCC43C)C2C1 (stereo not drawn) | > 25 | > 25 | > 25 | > 25 | 13.7 | > 25 | > 25 | 21.8 | 10.4 | – | – | – | – | – | – | – | – | – |
| Nc1ccc2c(c1)C(=O)N(O)C2=O | > 100 | – | > 100 | – | > 100 | > 100 | – | > 100 | > 100 | – | – | – | – | – | – | – | – | – |
